# According to article PMC12024912, “Druggability Studies of Benzene Sulfonamide Substituted Diarylamide (E3) as a Novel Diuretic” (Biomedicines, 2025):
# What was measured:
# mice = experiment: Mouse sperm malformation assay; details: mouse, in vivo, po, 2000 mg/kg/day
# Protocol: Male mice were randomly divided into three groups: control group (0.5% CMC-Na), E3 2000 mg/kg group, and positive group (50 mg/kg cyclophosphamide (CP), administered via intraperitoneal injection). E3 and the control group were administered once daily by intragastric gavage. All mice received treatment for 5 consecutive days. After the initial dosing period, […], the mice were euthanized, and evaluation of sperm parameters was performed as follows:
# Caudal epididymides were dissected into fragments in physiological saline and incubated (37 °C, 5% CO2, 10 min). Spermatozoa were isolated through nylon mesh filtration. Semen parameters were quantified using computer-assisted semen analysis (CASA). Eosin-stained smears (20 μL sperm suspension) were analyzed to examine sperm morphology. […] Sperm shape abnormalities, such as banana, headless, without a hook, amorphous, double-tailed, and fat head, were identified and counted. In addition, the testis was reserved for morphological analysis. The spermatogenesis was graded from 1 to 10 using the Johnsen score.
# SD rats = experiment: Long-term (7 d) diuretic activity in rats; assay type: in vivo, rat; details: for ALT / AST / Body weight / Brain index / Heart index / Kidney index / Liver index / Serum K / Serum Na / Serum creatinine / Serum urea / Spleen index / Testis index: n=6
# Protocol: In a single-dose administration experiment, male wild-type (WT) mice, UT-B^−/− mice, UT-A1^−/− mice, or SD rats were adapted in metabolic cages for 3 d. Food and water were provided ad libitum throughout the experiment. Prior to administration, the bladder of each animal was emptied through gentle abdominal massage, and urine was collected from the metabolic cages every 2 h. Compound E3, suspended in 0.5% CMC-Na at an appropriate concentration, was administered intragastric gavage to the mice or rats (0.16, 0.8, 4, or 20 mg/kg). Vehicle control comprised 0.5% (w/v) CMC-Na. Urinary parameters were determined through the following: volume: Gravimetric analysis (1 g/mL density assumption); osmolality: freezing-point osmometry (Micro-osmometer, Fisker Associates, Norwood, MA, USA); and urea: diacetyl oxime colorimetry (QuantiChrom® kit, Elabscience, Wuhan, China). In long-term (7 d) diuretic activity experiments, male WT mice, UT-B^−/− mice, UT-A1^−/− mice, and SD rats were acclimatized in metabolic cages (Ugo Basile, Comerio, VA, Italy) for 3 d. Food and water were provided ad libitum throughout the experiment. E3 was suspended in 0.5% CMC-Na and administered at a dose of 4 or 20 mg/kg by intragastric gavage. Urine was collected by metabolic cages every 24 h. Body weight was measured daily. At 4 h after the final administration, a blood sample was obtained by heart puncture. Inner medulla and outer medulla tissue homogenates were prepared, and the supernatant after centrifugation was analyzed for solute concentration and osmolality. Urinary osmolality and urea concentration were measured as above. Serum Na^+, K^+, and Cl^− were measured in a clinical chemistry laboratory, while serum creatinine, ALT, and AST were measured through specific reagent kits (NJJC Bio, Nanjing, China).
# Multiple tissues and organs were fixed with 4% paraformaldehyde and embedded in paraffin. Five μm paraffin sections were cut and stained with hematoxylin and eosin (H&E).
# Inner medulla tissues were homogenized in ice-cold RIPA buffer supplemented with protease/phosphatase inhibitors (Roche, Basel, Switzerland). Following centrifugation (12,000× g, 15 min, 4 °C), supernatants were subjected to BCA quantification (Thermo Scientific, Waltham, MA, USA). Protein lysates underwent SDS-PAGE separation and electrotransfer to PVDF membranes (Amersham Biosciences, Boston, MA, USA). After 2 h blocking with 5% skimmed milk, membranes were sequentially processed with: (1) TBST washes (20 mM Tris-HCl, 137 mM NaCl, 0.1% Tween-20, pH 7.4); (2) primary antibodies (UT-A1/A2/A3, UT-B, AQP2/3, β-actin; 4 °C, 12 h); and (3) HRP-conjugated secondary antibodies (anti-mouse/rabbit IgG; RT, 2 h). Chemiluminescent detection employed the ECL reagent (Meilunbio, Dalian, China) on a Syngene GeneGnome XRQ system, with band quantification via ImageJ (v1.53k).
smiles,measurement,setting,value
"CC(=O)c1ccc(C(=O)Nc2cccc(NS(=O)(=O)c3ccccc3)c2)o1 [Compound E3, 5-acetyl-N-(3-(phenylsulfonamido)phenyl)furan-2-carboxamide]","testicular tissue, H&E staining",mice,no significant differences
same,urine output,"SD rats; 4 mg/kg and 20 mg/kg intragastric, 7 d",continuously increased
same,ALT,"SD rats; 4 mg/kg, 7 d",42.2±5.5 U/L
same,AST,"SD rats; 4 mg/kg, 7 d",113.0±10.6 U/L
same,Body weight,"SD rats; 4 mg/kg, 7 d",242.4 ± 2.3 g
same,Brain index,"SD rats; 4 mg/kg, 7 d",0.58±0.01%
same,Heart index,"SD rats; 4 mg/kg, 7 d",0.38±0.01%
same,Kidney index,"SD rats; 4 mg/kg, 7 d",0.78±0.03%
same,Liver index,"SD rats; 4 mg/kg, 7 d",3.98±0.08%
same,Serum K,"SD rats; 4 mg/kg, 7 d",5.16 ± 0.10 mM
same,Serum Na,"SD rats; 4 mg/kg, 7 d",140.7 ± 1.2 mM
same,Serum creatinine,"SD rats; 4 mg/kg, 7 d",33.6 ± 1.7 µM
same,Serum urea,"SD rats; 4 mg/kg, 7 d",7.15 ± 0.16 mM
same,Spleen index,"SD rats; 4 mg/kg, 7 d",0.30±0.02%
same,Testis index,"SD rats; 4 mg/kg, 7 d",0.88±0.06%
same,ALT,"SD rats; 20 mg/kg, 7 d",40.2±1.9 U/L
same,AST,"SD rats; 20 mg/kg, 7 d",112.9±4.5 U/L
same,Body weight,"SD rats; 20 mg/kg, 7 d",240.8 ± 4.1 g
same,Brain index,"SD rats; 20 mg/kg, 7 d",0.64±0.01%
same,Heart index,"SD rats; 20 mg/kg, 7 d",0.40±0.01%
same,Kidney index,"SD rats; 20 mg/kg, 7 d",0.73±0.03%
same,Liver index,"SD rats; 20 mg/kg, 7 d",3.99±0.06%
same,Serum K,"SD rats; 20 mg/kg, 7 d",4.98 ± 0.12 mM
same,Serum Na,"SD rats; 20 mg/kg, 7 d",141.3 ± 1.0 mM
same,Serum creatinine,"SD rats; 20 mg/kg, 7 d",34.1 ± 1.6 µM
same,Serum urea,"SD rats; 20 mg/kg, 7 d",7.18 ± 0.19 mM
same,Spleen index,"SD rats; 20 mg/kg, 7 d",0.29±0.01%
same,Testis index,"SD rats; 20 mg/kg, 7 d",0.94±0.02%
same,excretion of non-urea solutes,"SD rats; 4 and 20 mg/kg, 7 d",did not change
same,urine osmolality,"SD rats; 4 and 20 mg/kg, 7 d",significantly decreased
same,H&E staining of cortex and medulla of rat kidneys,"SD rats; 7 d, except dilatation of the collecting duct due to polyuria",did not induce morphological abnormalities
same,non-urea solutes in inner medullary tissue,"SD rats; 7 d, vs control",did not change
same,osmolality in inner medullary tissue,"SD rats; 7 d, vs control",significantly decreased
same,"outer medullary osmolality, urea concentration, and non-urea solute concentration","SD rats; 7 d, vs control",no differences
same,urea concentration in inner medullary tissue,"SD rats; 7 d, vs control",significantly decreased
same,"body weight, organ indexes, blood biochemical parameters (incl. serum Na+, K+, Cl−)","SD rats; after 7 d of treatment, vs control",no significant difference
